Consider six molecules from patent US5334595A, “Pyrazoloquinolones as anticancer agents” (priority 1992, dated 1994).

A short description of data set [1]: In vivo antitumor assay, B16(ip). More on the design: species or system mice. Particulars: mouse, in vivo, drug ip. The text has this:
(§1) Mice: Inbred: C3H/He and NCR-nu; and Hybrids: B6D2F1 (C57BL/6 females×DBA/2 males, CD2F1 (Balb/c females×DBS/2 males) and B6C3fl (C57BL/6×C3H) were bred at Wayne State University from strains obtained from the Frederick Cancer Research Facility, Frederick, Maryland or purchased from commercial suppliers.
(§2) Tumors: Murine Tumor: P388 and an adriamycin-resistant (ADR) subline P388/ADR leukemia and the following transplantable solid tumors of mice were used for in vivo testing: B16 melanoma (B16), pancreatic ductal adenocarcinoma No. 03 (Pane 03), colon adenocarcinoma No. 38 (colo 38), lung carcinoma No. 12 (LC 12), mammary ductal adenocarcinoma No. 16/C (Mam16C) and an adriamycin-resistant subline Mam16C/ADR. Human tumor: A single human tumor, mammary carcinoma MX-1 was used for in vivo testing. All tumors are in the Developmental Therapeutics Program frozen tumor respository, maintained by the Biological Testing Branch, Frederick Maryland. Each has a detailed description, code identification number, and list of references at the National Tumor Repository. Murine tumors were maintained in the mouse strain of origin and were transplanted in the appropriate F1 hydrid (or the strain of origin) for therapy trials. Human mammary carcinoma MX-1 (MX1) was maintained as a subcutaneous implant in either athymic Swiss (Cr: NIH(S)-nu) or athymic random bred (NCR-nu) mice and transplanted in NCR-nu for therapy trials.
(§3) For P388 and P388/ADR leukemia studies the tumor cells were implanted either interperitoneally (IP) or intravenously (IV) on day zero and treatment was started on day one. For B16 melanoma (B16) studies, the tumor cells were implanted IP on day zero and treatment was started on day one. Titered controls were also included to facilitate the calculation of tumor cell kill. For mammary carcinoma MX-1 studies, tumors were implanted with 1) subcutaneously (sc) (14-mg fragment of sc donor tumor) in the axillary region or 2) under the subrenal capsule (SRC) (10×10×10 ocular micrometer unit fragment of sc donor tumor).
(§4) Quantitative end points used to assess antitumor activity included % Increased Life Span (% ILS), Tumor Cell Kill (Log10 kill), and Tumor Growth Inhibition (T/C). Long Term Survivors (45 or 60 day) were excluded from calculations of %ILS and Tumor Cell Kill.
(§5) Endpoints were calculated as follows: [formula] where Dt is the median day of death for treated and Dc is the median day of death for control groups. A % ILS ≥20 or ≥25 for P388 and B16 intraperitoneal models, respectively, is indicative of a significant degree of antitumor activity. A % ILS ≥75 or ≥50 for P388 and B16 intraperitoneal models, , respectively, is indicative of a high degree of antitumor activity and is the level used by National Cancer Institute to justify further development if other requirements are met (termed DN-2 level activity). Minimum quantitative activity limits for additional P388 models (e.g. P388/ADR and P388, IV) have not been defined.

In data set [2] the test system is B16 melanoma (B16). Nature of the data set: In vivo antitumor assay, B16(ip). More on the design: species or system mice. As to conditions: drug ip; for ILS %: qd 1,5,9, exp SD-17, at dose of MTD; for Log Kill: qd 1,5,9, exp SD-17, log10.
Description: as §1, §2, §3, §4, §5

Data set [3] in a line: In vivo antitumor assay, Colo38(sc). More on the design: species or system mice. As to conditions: mouse, in vivo.
Description: as §1, §2
(§6) Chemotherapy: For pancreatic ductal adenocarcinoma No. 3, colon adenocarcinoma No. 38 (colo 38), lung carcinoma No. 12 LC 12) and both adriamycin-sensitive (RP) and-resistant (ADR) mammary ductal adenocarcinoma No. 16 (Mam16) tumors, bilateral tumor implants were used to help ensure a more uniform tumor burden per mouse (thus reducing the requirement for greater numbers of mice per group). The animals necessary to begin an experiment were pooled, implanted bilaterally s.c. on day zero with 30-60 mg tumor fragments using a 12-gauge trocar, and again pooled before randomization to the various treatment and control groups. Chemotherapy was started within three days after tumor implantation while the number of cells per mouse was relatively small (1×10^7 -1×10^8 cells).
as §4
(§7) Tumors were measured with a caliper once or twice weekly (as needed) until either tumors exceeded 1600 mg or cure was assured. Tumor weights were estimated from two-dimensional measurements: Tumor Weight (mg)=(a×b^2) / 2, where a and b are the tumor length and width (ram) respectively. Measurements were carried out simultaneously in both treatment and control groups. When the control group tumors reached approximately 750-1500 mg in size (median of group), the median tumor weight of each group was determined (including zeros). The T/C value in percent is an indication of antitumor effectiveness. The % T/C was calculated from the following formula for solid murine tumor models: [formula] where T and C are median tumor weights of the treatment and control groups, respectively. […] A T/C value <10% is indicative of a high degree of antitumor activity and is the level used by National Cancer Institute to justify further development if other requirements are met (termed DN-2 level activity). By convention the T/C value for the mammary carcinoma MX-1 models is calculated by the parameter of change in tumor weight .

Data set [4] relates to colon adenocarcinoma No. 38 (colo 38). Kind of data set: In vivo antitumor assay, Colo38(sc). Further details: species or system mice.
Description: as §1, §2, §6, §4, §7

Data set [5] in a line: In vivo antitumor assay, MXI(sc). More on the design: species or system human. As to conditions: mouse, in vivo, drug ip, qd 1,5,9, exp SD-9.
Description: as §1, §2, §3, §4
as §7, with “weight . The % T/C was calculated from the following formula for MX-1 models [formula] where ΔT and ΔC are the change in mean tumor weight of the test and control groups, respectively, and T (initial) is the initial mean tumor weight of the test group. […] A reproducible % T/C ≤10 is considered significant activity.” for “weight .”

Data set [6] has as its system mammary carcinoma MX-1. Kind of data set: In vivo antitumor assay, MXI(sc). As to conditions: drug ip, qd 1,5,9, exp SD-9, change in tumor weight. Further details: species or system human.
Description: as §1, §2, §3, §4
as §7, with “weight . The % T/C was calculated from the following formula for MX-1 models [formula] where ΔT and ΔC are the change in mean tumor weight of the test and control groups, respectively, and T (initial) is the initial mean tumor weight of the test group. […] A reproducible % T/C ≤10 is considered significant activity.” for “weight .”

Data set [7] concerns P388 leukemia. Nature of the data set: In vivo antitumor assay, P388(ip). Particulars: qd 1,5,9. Further details: species or system mice.
Description: as §1, §2, §3, §4, §5

Where [8] appears, read: drug iv, sc, iv, qd 3-16, exp 1038.
Where [9] appears, read: qd 1,5,9, exp SD-17, MTD not achieved, maximum dose tested.
Where [10] appears, read: drug iv, qd 3-4, bid 5,6,12-17, exp 1036.
[11] abbreviates: drug iv,sc: iv, qd 3-9, sc, qd 11-19, exp 1163.

Regarding `Cc1cc(-c2c(F)cc3c4nn(CCN(C)C)c(=O)c-4cn(C4CC4)c3c2F)cc(C)n1.O=C(O)/C=C/C(=O)O` [Example 1, 5-Cyclopropyl-6,8-difluoro-2,5-dihydro-2-[2-(dimethylamino)-ethyl]-7-(2,6-dimethyl-4-pyridinyl)-3H-pyrazolo[4,3-c]quinolin-3-one (E)-2-butendioate (1:1)], the MTD in data set [1] (qd 1,5,9, exp SD-17) stood at 78 mg/kg; in data set [3] (drug iv, qd 3,7,11, exp 1038) it was 78 mg/kg; in data set [3] (setting [8]), 58 mg/kg; in data set [5] it was 78 mg/kg. Besides, the ILS % in data set [2] is reported as 85%; in data set [7] (drug ip), 155%; in data set [7] (drug iv), 170%. In addition, the “Log Kill” value in data set [2] is 1.9; in data set [4] (drug iv, qd 3,7,11, exp 1038), 0.60; in data set [4] (setting [8]), 1.2; in data set [7] (drug ip), 11; in data set [7] (drug iv), 12. Further, the T/C % stood at 14% in data set [4] (drug iv, qd 3,7,11, exp 1038); 0% in data set [4] (setting [8]); 37% in data set [6].
On to `Cc1cc(-c2c(F)cc3c4nn(CCCN(C)C)c(=O)c-4cn(C4CC4)c3c2F)cc(C)n1` [Example 14], for which the MTD in data set [1] (qd 1,5,9, exp SD-17) turned out to be 28 mg/kg; in data set [3] (drug iv, qd 3,12-14, exp 905), 133 mg/kg; in data set [5], 42 mg/kg. Further, the ILS % in data set [2] is listed as 58%; in data set [7] (drug ip), 85%; in data set [7] (drug iv) it was 70%. Further, the “Log Kill” value is on record as 1.3 in data set [2]; 0.54 in data set [4] (drug iv, qd 3,12-14, exp 905); 6.1 in data set [7] (drug ip); 5.0 in data set [7] (drug iv). Besides, the T/C % is on record as 38% in data set [4] (drug iv, qd 3,12-14, exp 905) and 53% in data set [6].
`Cc1cc(-c2c(F)cc3c4nn(CCNCCO)c(=O)c-4cn(C4CC4)c3c2F)cc(C)n1` [Example 17]: the MTD amounted to 180 mg/kg in data set [1] (qd 1,5,9, exp SD-17) and 270 mg/kg in data set [5]. For the same molecule, the ILS % came out at 61% in data set [2], 50% in data set [7] (drug ip) and 5% in data set [7] (drug iv). Also, the “Log Kill” value in data set [2] amounted to 1.4; in data set [7] (drug ip) it was 3.5; in data set [7] (drug iv), 0.35. In data set [6], this molecule came in with a T/C % of 67%.
Regarding `Cc1cc(-c2c(F)cc3c4nn([C@H]5CC[C@@H](N(C)C)CC5)c(=O)c-4cn(C4CC4)c3c2F)cc(C)n1` [Example 51a], the values for the MTD in data set [1] (setting [9]) and in data set [3] (setting [10]) were greater than 15 mg/kg and 63 mg/kg, respectively. The ILS % in data set [2] turned out to be 29%; in data set [7] (drug ip), 65%; in data set [7] (drug iv), 70%. Also, the “Log Kill” value in data set [2] was 0.67; in data set [7] (drug ip), 4.7; in data set [7] (drug iv), 5.1. In data set [4] (setting [10]), this molecule registered a T/C % of 39%.
With `Cc1cc(-c2c(F)cc3c4nn([C@H]5CC[C@H](N(C)C)CC5)c(=O)c-4cn(C4CC4)c3c2F)cc(C)n1` [Example 51b], the MTD was greater than 99 mg/kg in data set [1] (setting [9]) and greater than 220 mg/kg in data set [3] (drug iv, qd 3-4,15,17, bid 5.7, exp 1036, MTD not achieved, maximum dose tested). Moreover, the ILS % was 47% in data set [2], 85% in data set [7] (drug ip) and 85% in data set [7] (drug iv). For the same molecule, the “Log Kill” value worked out at 1.0 in data set [2], 6.2 in data set [7] (drug ip) and 6.2 in data set [7] (drug iv). The same molecule displayed a T/C % in data set [4] (drug iv, qd 3-4,15,17, bid 5.7, exp 1036) of 13%.
In turn, `Cc1cc(-c2c(F)cc3c4nn([C@H]5CC[C@@H](N)CC5)c(=O)c-4cn(C4CC4)c3c2F)cc(C)n1` [Example 56a, 2-(Cis-4-Aminocyclohexyl)-5-cyclopropyl-6,8-difluoro-2,5-dihydro-7-(2,6-dimethyl-4-pyridinyl)-3H-pyrazolo-[4,3-c]quinolin-3-one] came in with an MTD in data set [3] (setting [11]) of 137 mg/kg. The T/C % in data set [4] (setting [11]) was determined as 40%.
